Measurements published in paper PMC9911797, “Novel TLR7/8 agonists promote activation of HIV-1 latent reservoirs and human T and NK cells” (Frontiers in Microbiology, 2023).

Experiments:
hTLR8 = target: T1, hTLR8 (Homo sapiens, UniProt Q9NR97); assay: HEK-Blue hTLR8 SEAP reporter assay; format: cell-based; details: HEK-Blue hTLR8 cells, SEAP in supernatant
T1 construct: host or cells: HEK-Blue hTLR8 (HEK293-derived)
T1 sequence (Q9NR97 27-1041): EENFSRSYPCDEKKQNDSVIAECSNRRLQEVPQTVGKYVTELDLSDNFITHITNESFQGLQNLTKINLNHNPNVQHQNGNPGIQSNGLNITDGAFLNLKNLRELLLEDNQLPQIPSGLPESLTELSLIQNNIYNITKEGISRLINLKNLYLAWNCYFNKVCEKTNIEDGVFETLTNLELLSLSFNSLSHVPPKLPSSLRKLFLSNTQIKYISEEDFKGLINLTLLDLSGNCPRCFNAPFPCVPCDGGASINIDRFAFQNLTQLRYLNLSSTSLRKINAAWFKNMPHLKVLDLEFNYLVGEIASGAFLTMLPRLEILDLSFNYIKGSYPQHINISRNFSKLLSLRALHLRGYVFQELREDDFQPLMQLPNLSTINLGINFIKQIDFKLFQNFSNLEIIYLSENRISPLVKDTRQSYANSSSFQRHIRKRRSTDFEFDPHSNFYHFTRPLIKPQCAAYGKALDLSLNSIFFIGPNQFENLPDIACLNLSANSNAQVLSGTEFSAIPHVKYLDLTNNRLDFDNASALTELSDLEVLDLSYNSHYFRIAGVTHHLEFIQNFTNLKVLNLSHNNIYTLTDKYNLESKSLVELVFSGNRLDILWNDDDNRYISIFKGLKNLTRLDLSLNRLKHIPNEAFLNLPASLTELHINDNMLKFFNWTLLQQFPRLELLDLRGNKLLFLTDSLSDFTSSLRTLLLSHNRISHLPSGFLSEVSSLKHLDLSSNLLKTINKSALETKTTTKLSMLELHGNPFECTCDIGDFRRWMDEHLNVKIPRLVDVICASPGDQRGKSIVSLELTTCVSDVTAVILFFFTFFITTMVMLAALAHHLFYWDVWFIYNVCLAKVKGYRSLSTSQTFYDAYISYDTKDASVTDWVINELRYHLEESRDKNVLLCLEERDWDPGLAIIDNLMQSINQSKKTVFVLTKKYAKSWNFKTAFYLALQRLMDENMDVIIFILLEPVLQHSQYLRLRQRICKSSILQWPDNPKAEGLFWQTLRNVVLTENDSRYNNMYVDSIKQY
Method: Starting with the lead compound, 76 pyrido [3,2-d] pyrimidine derivatives were synthesized and optimized through structural modification from the deep hydrophobic region to the solvent-exposed region. Seventy-six compounds were evaluated for their in vitro activity using HEK-Blue hTLR7 or hTLR8 reporter cells, stably expressing the human TLR7 or TLR8 and an NF-κB/AP1-inducible SEAP (secreted embryonic alkaline phosphatase reporter gene).
Add 20 μl various concentrations of TLR agonists (10 dilutions) and in a 96-well plate. Then HEK-Blue hTLR7 and hTLR8 cells were suspended to 4 × 10^5 cells/ml in HEK-Blue Detection (InvivoGen) medium and added 180 μl per well. The plates were incubated at 37°C in 5% CO2 for 12 ~ 16 h. Stimulation with a hTLR7or hTLR8 ligand activates NF-κB to induce the production of secreted embryonic alkaline phosphatase (SEAP) in the culture supernatant. SEAP could be measured at OD630nm on an ELISA plate reader.

[1] = tested on: PBMCs from HIV-1 well-suppressed patients; assay: Latent HIV-1 activation in PBMCs of well-suppressed patients (HIV-1 RNA copies in supernatant, RT-qPCR); format: cell-based, human
Description: To study the potential of novel TLR7/8 in activating latent HIV-1 reservoir, TLR7/8 dual agonists D018 and C142 and TLR8-specific agonist B-130a were mixed with PBMCs from six well-suppressed patients whose viral load in the plasma was less than 50 copies/ml, and CD4 counts were more than […] for more than 6 years.
TLR7/8 agonists activated PBMCs from seven well-suppressed patients with the addition of anti-TNF-α monoclonal antibody or IgG1-control monoclonal antibody, respectively. D018, B-130a, and the positive control PMA + ION increased the levels of HIV-1 RNA copies in the supernatant and the concentration of TNF-α concomitantly.
To measure the HIV viral load, viral RNA from supernatants was extracted by MagaBio Plus Viral DNA / RNA Purification Kit (BIOER). The reverse-transcription and analysis of RNA copies were performed using the HIV-1 Real-time PCR detection kit (BIOER).

PBMCs = assay: Inflammatory cytokine release from PBMCs (Legend-plex); format: cell-based, human; details: PBMC culture supernatant 48 h after stimulation
Method: Then, a total of 13 human inflammatory cytokines and chemokines (IL-1β, IFN-α2, IFN-γ, TNF-α, CCL2, IL-6, CXCL8, IL-10, IL-12p70, IL-17A, IL-18, IL-23, and IL-33) were measured in the culture supernatant 48 h after stimulation and compared with two healthy donors. Only 8 out of 13 became detectable and largely fell into the proinflammatory cytokines (IL-1β, IL-6, IL-18, IL-23, and TNF-α), Th1-and Th2-type cytokines (IL-10 and IFN-γ), and type I (IFN-α2) and type II (IFN-γ) interferons (Figures 2B–I).
The supernatants from PBMCs culture were collected and stored at-20°C until analysis. For the Multi-cytokines assay, the Legend-plex Human Inflammation Panel 1 kit (Biolegend) was used according to the manual. Thirteen human inflammatory cytokines/chemokines were measured, including IL-1β, IFN-α2, IFN-γ, TNF-α, MCP-1 (CCL2), IL-6, IL-8 (CXCL8), IL-10, IL-12p70, IL-17A, IL-18, IL-23, and IL-33.

NF-κB p65 in U1 cells = assay: Nuclear phospho-p65-S536 in U1 cells (western blot); details: 1 μM, 30 min, 37°C
Method: For measuring NF-kB p65 and phosphor-p65 S536, 5 × 10^6 U1 cells were stimulated by 1 μM TLR7/8 agonists D018 (7/8), B-130a (8), GS9620 (7), and DMSO (negative control) for 30 min. Nuclear proteins were extracted by NE-PER Nuclear and Cytoplasmic Extraction Reagents (Pierce) and measured the concentration using BCA protein measure kit (Thermo).
Equal amounts of extracts were loaded on the 10% polyacrylamide gel SDS-PAGE. Then proteins were electro-transferred to nitrocellulose membranes 300 mA for 90 min and incubated with blocking buffer (5% nonfat dry milk and 0.1% Tween 20 in TBS) for 1 h at room temperature. NF-kB p65, phosphorylate p65-s529, and PCNA (as the control of nuclear protein) were separately detected by NF-κB p65 Mouse mAb (CST), Phospho-NF-κB p65 Ser536 Rabbit mAb (CST) and PCNA Rabbit mAb (CST) in blocking buffer overnight at 4°C. After washing 5 times in TBST (1 × TBS + 0.1% Tween), the membranes were incubated with anti-mouse IgG (H + L) HRP (Promega) and anti-rabbit IgG (H + L) HRP (Promega) for 1 h at room temperature. After washing 5 times in TBST, membranes were incubated with ECL detection reagents (Bio-red) and then developed in Bio-red imager.

[2] = tested on: J-LAT cells co-cultured with MDDCs; assay: J-LAT and MDDC co-culture assay (GFP+ cells and TNF-α); details: 1 μM, 48 h
[3] = tested on: U1 monocytic cell line (latent HIV-1); assay: HIV-1 p24 production in latently infected U1 cells (ELISA)
[4] = tested on: J-LAT CD4 T cell line (latent HIV-1); assay: J-LAT activation by supernatant of agonist-stimulated healthy donor PBMCs (GFP+ cells, FACS); details: 48 h, highest concentration 16 μM

With `CCCCNc1nc(N)nc2ccc(Cc3ccc(CN(C)C)cc3)nc12` [D018] the EC50 (hTLR8) was 6.46 nM, the “HIV-1 RNA copies in the supernatant and TNF-α concentration” value ([1]; PBMCs from seven well-suppressed patients, IgG1-control antibody vs anti-TNF-α) was “increased” and the “HIV-1 RNA copies in the supernatant” value ([1]; patient PBMCs (n = 6), 96 h at 37°C) was “most potent”. The “release of inflammatory cytokines” value (PBMCs) was “either equivalent (IL-6, IL-10, IL-23, and IFN-γ) or higher (IL-1β, IL-18, and TNF-α) than the commercially available R848”, the “nuclear phos-p65-S536” value (NF-κB p65 in U1 cells) was “significant increase” and the “GFP+ J-LAT cells and soluble TNF-α in MDDC co-culture” value [2] was “marked increase”. For the same molecule, the “p24 production after TLR8 or MyD88 knockdown” value ([3]; 1 μM, TLR8- or MyD88-shRNA U1 vs sham-knockdown) was “essentially abolished the p24 production”, the EC50 ([3]; Homo sapiens, read-out: EC50 of p24 production in U1) was 70 nM and the “GFP-positive J-LAT cells, PBMC supernatant” value [4] was “most potent”.
